We go through 23 molecules from patent US11554171B2, “Compounds and methods for the targeted degradation of bromodomain-containing proteins” (Arvinas Operations, Inc., priority 2015, dated 2023).

A value given as a limit tells only on which side of the number the result lay.

This test concerns c-myc in 22RV-1 cells. Kind of test: Human c-myc ELISA assay. It is filed as cell-based. Conditions: Homo sapiens; for Emax: 22Rv1, 18 h, read-out: Degradation of BRD4: Maximum inhibition (%) c-Myc ELISA in 22RV1 cells; for DC50: 22Rv1, read-out: Degradation of BRD4: DC50 (uM) c-Myc ELISA in 22RV1 cells. In short, it runs like this: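 22RV-1 cells treated 18 h with 8-point 1:3 compound dilutions (final top 300 nM or 1 μM, 0.1% DMSO). Cells lysed in RIPA buffer with protease/phosphatase inhibitors, and c-myc protein in cleared lysate quantified by ELISA against a standard curve. DC50 reported for c-myc suppression.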
(In an ELISA, binding on a coated surface is turned into a signal by an enzyme label.)

As a reminder, the DC50 is the concentration at which degradation of the target reaches its halfway point. Regarding `Cc1sc2c(c1C)C(c1ccc(Cl)cc1)=N[C@@H](CC(=O)N[C@H]1C[C@@H](Oc3ccc4oc(C(=O)N[C@H](C(=O)N5C[C@H](O)C[C@H]5C(=O)N[C@@H](C)c5ccc(-c6scnc6CO)cc5)C(C)(C)C)cc4c3)C1)c1nnc(C)n1-2` [Example 342, (2S,4R)-1-[(2S)-3,3-dimethyl-2-({5-[(1,3-cis)-3-{2-[(9S)-7-(4-chlorophenyl)-4,5,13-trimethyl-3-thia-1,8,11,12-tetraazatricyclo[8.3.0.0^2,^6]trideca-2(6),4,7,10,12-pentaen-9-yl]acetamido}cyclobutoxy]-1-benzofuran-2-yl}formamido)butanoyl]-4-hydroxy-N-[(1S)-1-{4-[4-(hydroxymethyl)-1,3-thiazol-5-yl]phenyl}ethyl]pyrrolidine-2-carboxamide], the Emax is 100% and the DC50 is less than 0.01 µM.
On the same counts, the results for `Cc1ncsc1-c1ccc([C@H](C)NC(=O)[C@@H]2C[C@@H](O)CN2C(=O)C(C(C)C)n2cc(-c3cccc(OCCNC(=O)C[C@@H]4N=C(c5ccc(Cl)cc5)c5c(sc(C)c5C)-n5c(C)nnc54)c3)cn2)cc1` (stereo partly shown) [Example 222] are 100% and less than 0.01 µM.
Turning to `Cc1ncsc1-c1ccc([C@H](C)NC(=O)[C@@H]2C[C@@H](O)CN2C(=O)[C@@H](NC(=O)CN2C[C@H](C)N(C3CC4(C3)CN(C(=O)C[C@@H]3N=C(c5ccc(Cl)cc5)c5c(sc(C)c5C)-n5c(C)nnc53)C4)C[C@H]2C)C(C)(C)C)cc1` [Example 359], the Emax is greater than 90% and the DC50 lay within 0.01 to 0.1 µM.
On the same counts, the results for `Cc1ncoc1-c1ccc([C@H](C)NC(=O)[C@@H]2C[C@@H](O)CN2C(=O)[C@@H](C(C)C)n2cc(-c3ccnc(O[C@H]4C[C@@H](NC(=O)C[C@@H]5N=C(c6ccc(Cl)cc6)c6c(sc(C)c6C)-n6c(C)nnc65)C4)c3)cn2)cc1` [Example 276] are 36% and greater than 1 µM.
On the same counts, the results for `Cc1ncsc1-c1ccc(CNC(=O)[C@@H]2C[C@@H](O)CN2C(=O)[C@@H](NC(=O)COCCCOc2ccc(-c3ccc(NC(=O)C[C@@H]4N=C(c5ccc(Cl)cc5)c5c(sc(C)c5C)-n5c(C)nnc54)cn3)cc2F)C(C)(C)C)cc1` [Example 23] are 91% and 0.01 to 0.1 µM.
On the same counts, the results for `Cc1ncsc1-c1ccc(CNC(=O)[C@@H]2C[C@@H](O)CN2C(=O)[C@H](C(C)C)n2cc(-c3cccc(O[C@H](C)CNC(=O)C[C@@H]4N=C(c5ccc(Cl)cc5)c5c(sc(C)c5C)-n5c(C)nnc54)c3)cn2)cc1` [Example 232] are 83% and 0.01 to 0.1 µM.
For `Cc1ncsc1-c1ccc(CNC(=O)[C@@H]2C[C@@H](O)CN2C(=O)[C@@H](NC(=O)COCCOCCOc2ccc(NC(=O)C[C@@H]3N=C(c4ccc(Cl)cc4)c4c(sc(C)c4C)-n4c(C)nnc43)cc2)C(C)(C)C)cc1` [Example 10, (2S,4R)-1-[(2S)-2-(2-{2-[2-(4-{2-[(9S)-7-(4-chlorophenyl)-4,5,13-trimethyl-3-thia-1,8,11,12-tetraazatricyclo[8.3.0.0^2,^6]trideca-2(6),4,7,10,12-pentaen-9-yl]acetamido}phenoxy)ethoxy]ethoxy}acetamido)-3,3-dimethylbutanoyl]-4-hydroxy-N-{[4-(4-methyl-1,3-thiazol-5-yl)phenyl]methyl}pyrrolidine-2-carboxamide], the Emax turned out to be 100% and the DC50 was in the range of 0.01 to 0.1 µM.
Take `Cc1sc2c(c1C)C(c1ccc(Cl)cc1)=N[C@@H](CC(=O)N[C@H]1C[C@H](Oc3ccc(CC(=O)N[C@H](C(=O)N4C[C@H](O)C[C@H]4C(=O)N[C@H](C)c4ccc(S(C)(=O)=O)cc4)C(C)(C)C)cc3)C1)c1nnc(C)n1-2` [Example 308]: the Emax stood at 21% and the DC50 was greater than 1 µM.
On the same counts, the results for `Cc1ncsc1-c1ccc(CNC(=O)[C@@H]2C[C@@H](O)CN2C(=O)[C@@H](NC(=O)COCCO[C@H]2C[C@@H](NC(=O)C[C@@H]3N=C(c4ccc(Cl)cc4)c4c(sc(C)c4C)-n4c(C)nnc43)C2)C(C)(C)C)cc1` [Example 138] are 89.4% and 0.1 to 1 µM.
On the same counts, the results for `Cc1ncsc1-c1ccc([C@H](C)NC(=O)[C@@H]2C[C@@H](O)CN2C(=O)[C@@H](C(C)C)n2cc(-c3ccnc(N4CC[C@H](NC(=O)C[C@@H]5N=C(c6ccc(Cl)cc6)c6c(sc(C)c6C)-n6c(C)nnc65)C4)c3)cn2)cc1` [Example 263] are 23.5% and greater than 1 µM.
On the same counts, the results for `Cc1ncsc1-c1ccc([C@H](C)NC(=O)[C@@H]2C[C@@H](OC(=O)CCCN)CN2C(=O)[C@@H](NC(=O)c2cc3cc(O[C@H]4C[C@@H](NC(=O)C[C@@H]5N=C(c6ccc(Cl)cc6)c6c(sc(C)c6C)-n6c(C)nnc65)C4)ccc3o2)C(C)(C)C)cc1` [Example 344] are 95.9% and 0.01 to 0.1 µM.
As for `Cc1ncsc1-c1ccc(CNC(=O)[C@@H]2C[C@@H](O)CN2C(=O)[C@@H](NC(=O)COCCCS(=O)(=O)CCNC(=O)C[C@@H]2N=C(c3ccc(Cl)cc3)c3c(sc(C)c3C)-n3c(C)nnc32)C(C)(C)C)cc1` [Example 101], the Emax was 88.3% and the DC50 lay within 0.1 to 1 µM.
On the same counts, the results for `Cc1ncsc1-c1ccc([C@H](C)NC(=O)[C@@H]2C[C@@H](OC(=O)[C@@H](N)C(C)C)CN2C(=O)[C@@H](NC(=O)c2cc3cc(O[C@H]4C[C@@H](NC(=O)C[C@@H]5N=C(c6ccc(Cl)cc6)c6c(sc(C)c6C)-n6c(C)nnc65)C4)ccc3o2)C(C)(C)C)cc1` [Example 338] are 100% and less than 0.01 µM.
On the same counts, the results for `Cc1ncsc1-c1ccc([C@H](C)NC(=O)[C@@H]2C[C@@H](O)CN2C(=O)[C@@H](NC(=O)Cc2ccc(N3CC[C@H](NC(=O)C[C@@H]4N=C(c5ccc(Cl)cc5)c5c(sc(C)c5C)-n5c(C)nnc54)C3)cc2)C(C)(C)C)cc1` [Example 235, (2S,4R)-1-[(2S)-2-(2-{4-[(3S)-3-{2-[(9S)-7-(4-chlorophenyl)-4,5,13-trimethyl-3-thia-1,8,11,12-tetraazatricyclo[8.3.0.0^2,^6]trideca-2(6),4,7,10,12-pentaen-9-yl]acetamido}pyrrolidin-1-yl]phenyl}acetamido)-3,3-dimethylbutanoyl]-4-hydroxy-N-[(1S)-1-[4-(4-methyl-1,3-thiazol-5-yl)phenyl]ethyl]pyrrolidine-2-carboxamide] are 97.5% and less than 0.01 µM.
With `Cc1sc2c(c1C)C(c1ccc(Cl)cc1)=N[C@@H](CC(=O)NCCOCCCOCC(=O)N[C@H](C(=O)N1C[C@H](O)C[C@H]1C(=O)NCc1ccc(C#N)cc1)C(C)(C)C)c1nnc(C)n1-2` [Example 75], the Emax worked out at 58.5% and the DC50 was 0.1 to 1 µM.
On the same counts, the results for `Cc1ncsc1-c1ccc([C@H](C)NC(=O)[C@@H]2C[C@@H](O)CN2C(=O)[C@@H](NC(=O)/C=C/c2cc(F)cc(O[C@H](C)CNC(=O)C[C@@H]3N=C(c4ccc(Cl)cc4)c4c(sc(C)c4C)-n4c(C)nnc43)c2)C(C)(C)C)cc1` [Example 202] are 94% and less than 0.01 µM.
On the same counts, the results for `Cc1ncsc1-c1ccc(CNC(=O)[C@@H]2C[C@@H](O)CN2C(=O)[C@@H](NC(=O)COCCN2CCC(c3ccc([C@H](C)NC(=O)C[C@@H]4N=C(c5ccc(Cl)cc5)c5c(sc(C)c5C)-n5c(C)nnc54)cc3)CC2)C(C)(C)C)cc1` [Example 52] are 93% and 0.1 to 1 µM.
On the same counts, the results for `Cc1ncsc1-c1ccc(CNC(=O)[C@@H]2C[C@@H](O)CN2C(=O)[C@@H](NC(=O)COCCn2cc(-c3ccc([C@H](C)NC(=O)C[C@@H]4N=C(c5ccc(Cl)cc5)c5c(sc(C)c5C)-n5c(C)nnc54)cc3)cn2)C(C)(C)C)cc1` [Example 86] are 80% and 0.1 to 1 µM.
On to `Cc1ncsc1-c1ccc([C@H](C)NC(=O)[C@@H]2C[C@@H](O)CN2C(=O)[C@H](C(C)C)n2cc(-c3ccnc(N4CC(NC(=O)C[C@@H]5N=C(c6ccc(Cl)cc6)c6c(sc(C)c6C)-n6c(C)nnc65)C4)c3)cn2)cc1` [Example 248], for which the Emax worked out at 95.9% and the DC50 was in the range of 0.01 to 0.1 µM.
On the same counts, the results for `Cc1ncsc1-c1ccc([C@H](C)NC(=O)[C@@H]2C[C@@H](O)CN2C(=O)[C@@H](NC(=O)c2cc3cc(O[C@H](C)CNC(=O)C[C@@H]4N=C(c5ccc(Cl)cc5)c5c(sc(C)c5C)-n5c(C)nnc54)ccc3o2)C(C)(C)C)cc1` [Example 206, (2S,4R)-1-[(2S)-2-[(5-{[(2R)-1-{2-[(9S)-7-(4-chlorophenyl)-4,5,13-trimethyl-3-thia-1,8,11,12-tetraazatricyclo[8.3.0.0^2,^6]trideca-2(6),4,7,10,12-pentaen-9-yl]acetamido}propan-2-yl]oxy}-1-benzofuran-2-yl)formamido]-3,3-dimethylbutanoyl]-4-hydroxy-N-[(1S)-1-[4-(4-methyl-1,3-thiazol-5-yl)phenyl]ethyl]pyrrolidine-2-carboxamide] are 90% and less than 0.01 µM.
On the same counts, the results for `Cc1ncoc1-c1ccc([C@H](C)NC(=O)[C@@H]2C[C@@H](O)CN2C(=O)C(C(C)C)n2cc(-c3cccc(O[C@H]4C[C@@H](NC(=O)C[C@@H]5N=C(c6ccc(Cl)cc6)c6c(sc(C)c6C)-n6c(C)nnc65)C4)c3)cn2)cc1` (stereo partly shown) [Example 286] are 93% and 0.01 to 0.1 µM.
On the same counts, the results for `Cc1ncsc1-c1ccc([C@H](C)NC(=O)[C@@H]2C[C@@H](O)CN2C(=O)[C@@H](NC(=O)COCCOc2cccc(NC(=O)C[C@@H]3N=C(c4ccc(Cl)cc4)c4c(sc(C)c4C)-n4c(C)nnc43)c2)C(C)(C)C)cc1` [Example 124] are 98% and less than 0.01 µM.
Consider `Cc1sc2c(c1C)C(c1ccc(Cl)cc1)=N[C@@H](CC(=O)N[C@H]1C[C@H](Oc3ccc(CC(=O)N[C@H](C(=O)N4C[C@H](O)C[C@H]4C(=O)N[C@@H](C)c4ccc(C(=O)N5CCC5)cc4)C(C)(C)C)cc3)C1)c1nnc(C)n1-2` [Example 282], for which the Emax came out at 25.4% and the half-maximal degradation concentration (DC50) is greater than 1 µM.
